# According to patent publication US20230190870A1, “Method for Treating Lysosomal Storage Diseases with Histatin Peptides” (THE BOARD OF TRUSTEES OF THE UNIVERSITY OF ILLINOIS, priority 2020, published 2023):
# Square brackets hold non-standard residues; d marks the D form. Peptide text beside a SMILES is read from it. pS = N[C@@H](COP(=O)(O)O)C(=O)O
# Assays:
# [1] = target: T1, TMEM97 (144-176) (Homo sapiens, UniProt Q5BJF2); test: Isothermal titration calorimetry, C-terminal of TMEM97; type: binding; settings: ITC; the C-terminal of TMEM97
# T1 construct: made in house; host or cells: chemical solid-phase synthesis (Fmoc, Wang resin)
# Protocol: Isothermal Titration Calorimetry (ITC). The three synthesized peptides, TMEM97 (108-176), TMEM97 (108-143) and TMEM97 (144-176) were prepared in ITC buffer (10 mM Tris, pH 7.4, 150 mM NaCl, 0.05% polysorbate 20) at 40 μM concentration and placed in the sample cell. All ITC experiments were performed while stirring at 395 rpm, in ITC buffer at 25° C. using a VP-ITC titration microcalorimeter from MicroCal™, LLC (Northampton, Mass.). The microsyringe was loaded with a Histatin 1 solution (500 μM in ITC buffer). All titrations were conducted using an initial injection of 2.5 μL followed by 35 identical injections of 5 μL with a duration of 16 seconds (per injection) and a spacing of 210 seconds between injections. The buffer control titration (Histatin 1 into buffer) signals were subtracted from the experimental data. The collected data were evaluated using NITPIC (NIH), SEDPHAT (NIH), and GUSSI (NIH).
# (§1) To determine more precisely which segment of TMEM97 is necessary for binding of Hst1, multiple synthetic fragments of TMEM97 were generated (Table 6) and binding to Hst1 was tested using SPR. […] Smaller fragments of the C-terminal of TMEM97 were then constructed to represent the (predicted) luminal (108-143) and cytoplasmic (144-176) exposed segments of the C-terminus of TMEM97 based on modeling experiments previously described. […] SPR results for Hst1 were confirmed using ITC as an orthogonal analytical method.
# [2] = cyclization of histatin-1; cited from earlier work
# [3] = target: T2, Synthetic TMEM97 (144-176) (Homo sapiens, UniProt Q5BJF2); test: Surface plasmon resonance, immobilized synthetic TMEM97 (144-176); type: binding; settings: SPR
# T2 construct: made in house; host or cells: chemical solid-phase synthesis (Fmoc, Wang resin)
# Protocol: (§2) Surface Plasmon Resonance (SPR). Recombinant full-length TMEM97 (also called MAC30, from HEK293 cells) and GST-TMEM97 (108-176, recombinant GST-C terminal from wheat germ) proteins were purchased from OriGene (Rockville, Md.) and Abnova (Taipei City, Taiwan), respectively. Three peptides, TMEM97 (108-176), TMEM97 (108-143) and TMEM97 (144-176), were synthesized. All proteins and peptides were initially prepared in HBS buffer containing 10 mM HEPES, pH 7.4, 150 mM NaCl, and 0.05% surfactant P20. The CM5 sensor surface was first activated by 1-ethyl-3-(3-dimethylaminopropyl) carbodiimide hydrochloride (EDC)/N-hydroxy succinimide (NHS) mixture using a Biacore T200 or Biacore 8K instrument (GE Healthcare). […] Flow channels 1 and 3 were used as references.
# (§3) The three synthesized peptides were diluted to 50 μg/mL in 10 mM sodium acetate at pH 4.0 and immobilized to flow channels 2, 3 and 4, respectively, on another sensor chip. The unmodified surfaces on a flow channel 1 were used as a reference control. Histatin solutions with a series of increasing concentrations (0.78-25 μM at 2-fold dilution) were applied to all four channels at a 30 μL/minute flow rate at 25° C. The data were double-referenced with reference channel and zero concentration responses, and reference subtracted sensorgrams were fitted with 1 to 1 Langmuir kinetic model using a Biacore T200 evaluation software V3.0 or Insight evaluation software. The equilibrium dissociation constants ([…]) were determined from two rate constants (KD=kd/ka).
# as §1
# (§4) To determine the region(s) of Hst1 that mediate binding to TMEM97, SPR testing was performed with various Hst1 fragments and either recombinant TMEM97 (GST-tagged, wheat-germ derived, C-terminal fragment TMEM97 (108-176)) or synthesized TMEM97 (TMEM97 (108-176), TMEM97 (108-143) and TMEM97 (144-176)).
# [4] = test system: Synthetic TMEM97 (144-176); test: as above; type: binding; settings: mutations E170A, E171A and E170A/E171A of TMEM97 (144-176)
# Protocol: as §2, §3, §1, §4
# [5] = test system: Human corneal epithelial cells; test: Calcium Green-2 calcium signaling in human corneal epithelial cells; type: cell-based
# Protocol: Calcium Signaling. Human corneal epithelial cells were treated with Hst1 or Hst5, stained with Calcium Green-2, and relative fluorescence intensity was monitored at 1, 2 and 4 hours. […] This normalization of cellular calcium levels seen after toxicity from benzalkonium chloride treatment is analogous to toxic effects seen in chronic pain and other conditions. As such, histatin peptides may of use in the amelioration of chronic pain.
# [6] = test system: NPC1 KD cells; test: Filipin staining of cholesterol in NPC1 knockdown cells; type: cell-based; settings: 20 μM or 50 μM
# Description: Cholesterol. […] Filipin staining, the generally accepted tool for detection of cholesterol deposits in NPC cells (Vanier, et al. (2003) Clin. Genet. 64:269-81), was used to visualize cholesterol in control and NPC1 KD cells. This analysis indicated increased clustering and collection of filipin-stained cholesterol in NPC1 KD cells, consistent with the NPC1 phenotype.
# T2 sequence (Q5BJF2 144-176): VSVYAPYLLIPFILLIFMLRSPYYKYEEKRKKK
# T1 sequence (Q5BJF2 144-176 limits assumed): as the sequence (Q5BJF2 144-176) above
smiles,measurement,setting,value
CC(C)C[C@H](NC(=O)[C@H](Cc1ccc(O)cc1)NC(=O)[C@H](CC(N)=O)NC(=O)[C@H](CO)NC(=O)CNC(=O)[C@H](Cc1ccc(O)cc1)NC(=O)[C@H](CC(=O)O)NC(=O)CNC(=O)[C@H](Cc1ccc(O)cc1)NC(=O)[C@H](Cc1ccccc1)NC(=O)[C@@H]1CCCN1C(=O)[C@H](Cc1ccccc1)NC(=O)[C@H](CCC(=O)O)NC(=O)[C@H](CCCNC(=N)N)NC(=O)[C@H](Cc1c[nH]cn1)NC(=O)[C@H](CO)NC(=O)[C@H](Cc1c[nH]cn1)NC(=O)[C@H](Cc1c[nH]cn1)NC(=O)[C@H](CCCCN)NC(=O)[C@H](CCC(=O)O)NC(=O)[C@H](Cc1c[nH]cn1)NC(=O)[C@H](Cc1ccccc1)NC(=O)[C@H](CCCCN)NC(=O)[C@H](CCCNC(=N)N)NC(=O)[C@H](CCCNC(=N)N)NC(=O)[C@H](Cc1ccc(O)cc1)NC(=O)CNC(=O)[C@H](Cc1c[nH]cn1)NC(=O)[C@H](Cc1c[nH]cn1)NC(=O)[C@H](CCCNC(=N)N)NC(=O)[C@H](CCCCN)NC(=O)[C@H](CCC(=O)O)NC(=O)[C@H](Cc1c[nH]cn1)NC(=O)[C@H](COP(=O)(O)O)NC(=O)[C@@H](N)CC(=O)O)C(=O)N[C@@H](Cc1ccc(O)cc1)C(=O)N[C@@H](CC(=O)O)C(=O)N[C@@H](CC(N)=O)C(=O)O [Hst1] (H-D[pS]HEKRHHGYRRKFHEKHHSHREFPFYGDYGSNYLYDN-OH; N-terminus and C-terminus assumed),Kd,[1],460 ± 120 nM
same,ΔH,[1],-790 ± 28 kcal/mol
same,ΔS,[1],−2.28(±0.37)×10^3 cal/mol K
same,potentiation of molar activity by cyclization,[2],approximately 1000 fold
same,% Rmax,[3],21%
same,Kd,[3],2400 nM
same,% Rmax,[3]; listed as Hst1(1-38),(% Rmax = 22%)
same,effect of TMEM97 mutations on Hst1 binding,[4],did not affect
same,calcium signaling (relative fluorescence intensity),"[5]; 1, 2 and 4 hours",increases calcium signaling
same,elevated calcium levels after benzalkonium chloride,[5]; cells treated with 0.001% BAK,reduced elevated calcium levels
same,cholesterol accumulation (Filipin staining),[6],reduced cholesterol accumulation
